Measurements from US20070088033A1, “Diaryl Substituted Pyridinones” (priority 2002, published 2007).
Where “and” joins values, the source holds several entries; their conditions need not be identical. Equal values may be shown once. Read-outs that look alike come from different tables or passages of the source.

Target: T1, human p38 kinase alpha (Homo sapiens, UniProt Q16539)
T1 construct: The coding region of the human p38 cDNA was obtained by PCR-amplification from RNA isolated from the human monocyte cell line THP.1; GST (N); made in house; host or cells: E. coli DH10B
Assay: p38 kinase in vitro assay
Format: biochemical
Experimental: The ability of compounds to inhibit human p38 kinase alpha was evaluated using two in vitro assay methods. In the first method, activated human p38 kinase alpha phosphorylates a biotinylated substrate, PHAS-I (phosphorylated heat and acid stable protein-insulin inducible), in the presence of gamma ^32p-ATP (^32P-ATP). PHAS-I was biotinylated prior to the assay and provides a means of capturing the substrate, which is phosphorylated during the assay. p38 Kinase was activated by MKK6. Compounds were tested in 10 fold serial dilutions over the range of 100 μM to 0,001 μM using 1% DMSO. Each concentration of inhibitor was tested in triplicate.
All reactions were carried out in 96 well polypropylene plates. Each reaction well contained 25 mM HEPES pH 7.5, 10 mM magnesium acetate and 50 μM unlabeled ATP. […] Activated human p38 kinase alpha was used at 1 μg per 50 μl reaction volume representing a final concentration of 0.3 μM. Gamma ^32P-ATP was used to follow the phosphorylation of PHAS-I. ^32P-ATP has a specific activity of 3000 Ci/mmol and was used at 1.2 μCi per 50 μl reaction volume. The reaction proceeded either for one hour or overnight at 30° C.
Following incubation, 20 μl of reaction mixture was transferred to a high capacity streptavidin coated filter plate (SAM-streptavidin-matrix, Promega) prewetted with phosphate buffered saline, The transferred reaction mix was allowed to contact the streptavidin membrane of the Promega plate for 1-2 minutes. […] Filter plates were air-dried and 20 μl of scintillant was added. The plates were sealed and counted.
A second assay format was also employed that is based on p38 kinase alpha induced phosphorylation of EGFRP (epidermal growth factor receptor peptide, a 21 mer) in the presence ^33P-ATP. Compounds were tested in 10 fold serial dilutions over the range of 100 μM to 0.001 μM in 1% DMSO. Each concentration of inhibitor was tested in triplicate. Compounds were evaluated in 50 μl reaction volumes in the presence of 25 mM Hepes pH 7.5, 10 mM magnesium acetate, 4% glycerol, 0.4% bovine serum albumin, 0.4 mM DTT, 50 μM unlabeled ATP, 25 μg EGFRP (200 μM), and 0.05 μCi ^33p-ATP. Reactions were initiated by addition of 0.09 μg of activated, purified human GST-p38 kinase alpha. Activation was carried out using GST-MKK6 (5:1,p38:MKK6) for one hour at 30° C. in the presence of 50 μM ATP. Following incubation for 60 minutes at room temperature, the reaction was stopped by addition of 150 μl of AG 1×8 resin in 900 mM sodium formate buffer, pH 3.0 (1 volume resin to 2 volumes buffer). The mixture was mixed three times with pipetting and the resin was allowed to settle. A total of 50 μl of clarified solution head volume was transferred from the reaction wells to Microlite-2 plates. 150 μl of Microscint 40 was then added to each well of the Microlite plate, and the plate was sealed, mixed, and counted.

[1] = Table I, average of n trials, n=1 if not reported, read-out: p38 Alpha IC50
[2] = Table III, n = number of times assayed, n=1 if not reported, read-out: p38 Alpha IC50
[3] = Table II, several values in a cell = repeat determinations, read-out: p38A

T1 sequence (Q16539 whole entry): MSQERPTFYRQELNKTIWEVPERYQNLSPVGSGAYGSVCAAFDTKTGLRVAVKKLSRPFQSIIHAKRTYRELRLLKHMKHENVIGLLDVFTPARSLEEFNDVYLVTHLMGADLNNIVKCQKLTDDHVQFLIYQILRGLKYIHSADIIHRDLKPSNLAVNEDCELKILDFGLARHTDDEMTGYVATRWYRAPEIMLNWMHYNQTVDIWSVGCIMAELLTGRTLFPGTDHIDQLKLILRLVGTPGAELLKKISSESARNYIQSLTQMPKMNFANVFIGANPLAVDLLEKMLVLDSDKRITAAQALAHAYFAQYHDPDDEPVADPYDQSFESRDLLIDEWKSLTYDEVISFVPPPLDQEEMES

IC50 [1] [nM]	IC50 [3]	SMILES	further results
403		Cc1cc(OCc2ccc(F)cc2)c(Br)c(=O)n1-c1c(Cl)cccc1Cl [P]	
		O=c1c(Br)c(OCc2ccc(F)cc2F)ccn1Cc1cccnc1 [XXXX]	IC50 [2]: 282 nM
		O=c1c(Br)c(OCc2ccccc2)ccn1Cc1ccc(OCc2ccccc2)cc1 [KKKKK]	IC50 [2]: 1450 nM
		O=c1c(Br)c(OCc2ccc(F)cc2)ccn1CC1CC1 [JJJJJ]	IC50 [2]: 1550 nM
	1900 nM	O=c1c(Br)c(OCc2ccc(Cl)cc2)ccn1Cc1ccc(F)cc1 [PP]	
	1140 nM	O=c1c(Br)c(OCc2ccc(F)cc2)ccn1Cc1cccc(Cl)c1 [UU]	
		Cc1cc(OCc2ccc(F)cc2F)c(Br)c(=O)n1Cc1cccnc1 [RRRR]	IC50 [2]: 132 nM
	1250 nM and 921 nM	O=c1c(Br)c(OCc2ccc(F)cc2)ccn1Cc1ccc(F)cc1 [SS]	
		COc1ccc(Cn2ccc(OCc3ccc(F)cc3)c(Br)c2=O)cc1 [GGGGG]	IC50 [2]: 1040 nM
873		O=c1c(Br)c(OCc2ccc(F)cc2)ccn1Cc1cccnc1 [II]	
	6630 nM	O=c1c(Br)c(OCc2ccc(Cl)cc2)ccn1CCc1ccccc1 [DDD]	
129		O=c1c(Br)c(OCc2ccc(F)cc2F)ccn1Cc1cccc(F)c1 [E]	
	1530 nM	O=c1c(Br)c(OCc2ccccc2)ccn1Cc1ccc(C(F)(F)F)cc1 [MMM]	
294		COc1cccc(C)c1-n1c(C)cc(OCc2ccc(F)cc2F)c(Br)c1=O [L]	
498		COc1cccc(Cn2ccc(OCc3ccc(F)cc3F)c(Br)c2=O)c1 [Example S]	
		Cc1cc(OCc2c(F)cccc2F)c(Br)c(=O)n1-c1c(Cl)cccc1Cl [YYYY]	IC50 [2]: 339 nM
	1730 nM	Cc1ccc(COc2ccn(Cc3ccccc3)c(=O)c2Br)cc1 [LL]	
	24900 nM	O=c1c(CO)c(OCc2ccccc2)ccn1Cc1ccccc1 [NNN]	
		O=c1c(Br)c(NCc2ccccc2)ccn1Cc1cccc(F)c1 [HHHHH]	IC50 [2]: 1180 nM
	14300 nM	O=c1c(Br)c(OCc2c(Cl)cccc2Cl)ccn1Cc1ccccc1 [VV]	
		Cc1cc(OCc2c(F)cc(F)cc2F)c(Br)c(=O)n1Cc1ccncc1 [UUUU]	IC50 [2]: 192 nM
489		N/C(=N/O)c1ccc(Cn2ccc(OCc3ccccc3)c(Br)c2=O)cc1 [Y]	

IC50 [1] [nM]	IC50 [3]	SMILES	further results
		Cc1cccc(C)c1-n1ccc(OCc2ccc(F)cc2)c(Br)c1=O [BBBBB]	IC50 [2]: 455 nM
260		Cc1cccc(COc2ccn(Cc3cccc(F)c3)c(=O)c2Br)c1 [H]	
170		O=c1c(Br)c(OCc2ccccc2)ccn1Cc1ccc(F)cc1 [D]	
		Cc1cc(CCc2ccccc2)c(Br)c(=O)n1Cc1cccc(F)c1 [LLLLL]	IC50 [2]: 1710 nM
		Cc1cccc(C)c1-n1c(C)cc(OCc2c(F)cccc2F)c(Br)c1=O [QQQQ]	IC50 [2]: 199 nM
	3600 nM	O=c1c(Br)c(SCc2ccccc2)ccn1Cc1ccccc1 [BBBB]	
455		Cc1cccc(C)c1-n1c(C)cc(OCc2ccc(F)cc2)c(Br)c1=O [V]	
		CCn1ccc(OCc2ccccc2)c(Br)c1=O [SSSSS]	IC50 [2]: 1990 nM
423		O=C(O)c1ccc(Cn2ccc(OCc3ccccc3)c(Br)c2=O)cc1 [T]	
	41600 nM	Cc1c(Br)c(OCc2ccccc2)c(Br)c(=O)n1Cc1ccccc1 [FFF]	
572		O=c1c(Br)c(OCc2ccc(F)cc2)ccn1Cc1ccncc1 [EE]	
360		O=c1c(Br)c(OCc2ccc(F)cc2F)ccn1Cc1ccccc1F [M]	
		O=c1c(Br)c(OCc2ccc(F)cc2F)ccn1Cc1ccncc1 [SSSS]	IC50 [2]: 141 nM
785		N#Cc1ccc(Cn2ccc(OCc3ccc(F)cc3)c(Br)c2=O)cc1 [GG]	
	33800 nM	O=c1cc(OCc2ccccc2)ccn1Cc1ccccc1F [FFFF]	
		Cc1cc(OCc2ccc(F)cc2F)c(Br)c(=O)n1Cc1ccncc1 [VVVV]	IC50 [2]: 183 nM
	2410 nM	COc1ccc(Cn2ccc(OCc3ccc(Cl)cc3)c(Br)c2=O)cc1 [QQ]	
365		Cc1ccc(Cn2ccc(OCc3ccccc3)c(Br)c2=O)cc1 [Q]	
850		O=c1c(Br)c(OCc2ccc(F)cc2F)ccn1Cc1ccc(F)cc1F [JJ]	
	2460 nM	O=c1c(Br)c(OCc2ccc(Cl)cc2)ccn1Cc1ccc(Cl)cc1 [OO]	
	81800 nM	O=c1cc(OCc2ccccc2Cl)ccn1Cc1ccccc1 [WWW]	
	1450 nM	O=c1c(Br)c(OCc2ccccc2)ccn1Cc1ccc(OCc2ccccc2)cc1 [TT]	

IC50 [1] [nM]	IC50 [3]	SMILES	further results
581		O=c1c(Br)c(OCc2ccccc2)ccn1Cc1ccc(Br)cc1 [FF]	
	56500 nM	O=c1c(Br)c(OCc2ccc(Cl)cc2)ccn1CCSc1ccccc1 [RRR]	
	31900 nM	O=c1cc(OCc2ccccc2)ccn1Cc1ccc(Cl)cc1 [GGGG]	
	35800 nM	O=c1cc(OCc2ccccc2)ccn1Cc1cccc(F)c1 [PPP]	
	51500 nM	O=c1cc(OCc2cccc(Cl)c2)ccn1Cc1ccccc1 [XXX]	
	6800 nM	O=c1c(Br)c(OCc2ccc(Cl)cc2)ccn1Cc1cccc(Cl)c1 [RR]	
	3670 nM	CC(C)(C)c1ccc(Cn2ccc(OCc3ccccc3)c(Br)c2=O)cc1 [ZZ]	
		O=c1c(Br)c(OCc2ccccc2CO)ccn1Cc1cccc(F)c1 [CCCCC]	IC50 [2]: 663 nM
427		O=c1c(Br)c(OCc2ccccc2)ccn1Cc1ccccc1F [U]	
		O=c1c(Cl)c(OCc2ccc(F)cc2)ccn1Cc1ccc(F)cc1 [FFFFF]	IC50 [2]: 1080 nM
700		O=c1c(Br)c(OCc2ccccc2)ccn1Cc1cccc(F)c1 [J]	
		Cc1cccc(C)c1-n1c(C)cc(OCc2c(F)cc(F)cc2F)c(Br)c1=O [PPPP]	IC50 [2]: 97 nM
746		O=c1c(I)c(OCc2ccc(F)cc2)ccn1Cc1cccc(F)c1 [HH]	
536		N#Cc1ccc(Cn2ccc(OCc3ccccc3)c(Br)c2=O)cc1 [CC]	
632		O=c1c(Br)c(OCc2ccc(F)cc2)ccn1Cc1cccc(F)c1 [BB]	
691		O=c1c(Br)c(OCc2cccc(Cl)c2)ccn1Cc1cccc(F)c1 [AA]	
		Cc1cc(OCc2cccc(Cl)c2)c(Br)c(=O)n1Cc1ccccc1 [OOOOO]	IC50 [2]: 1600 nM
	1990 nM	CCn1ccc(OCc2ccccc2)c(Br)c1=O [AAA]	
	3310 nM	O=c1c(Br)c(OCc2ccccc2)ccn1CCc1ccsc1 [QQQ]	
450		CSc1ccc(Cn2ccc(OCc3ccccc3)c(Br)c2=O)cc1 [W]	
		NCc1cccc(Cn2ccc(OCc3ccc(F)cc3)c(Br)c2=O)c1 [TTTT]	IC50 [2]: 175 nM
64.6		Cc1cccc(C)c1-n1c(C)cc(OCc2ccc(F)cc2F)c(Br)c1=O [C]	

IC50 [1] [nM]	IC50 [3]	SMILES	further results
	9860 nM	O=c1c(Br)c(OCc2ccccc2)ccn1Cc1cccc(C(F)(F)F)c1 [SSS]	
	77600 nM	O=c1c(Br)c(OCc2ccccc2C(F)(F)F)ccn1Cc1ccccc1 [CCCC]	
210		Cc1cc(OCc2ccc(F)cc2F)c(Br)c(=O)n1Cc1ccncc1 [I]	
	2510 nM	O=c1c(Br)c(OCc2ccccc2)ccn1Cc1ccc(OC(F)(F)F)cc1 [DDDD]	
	1380 nM	O=c1c(Br)c(OCc2ccc(Cl)cc2)ccn1Cc1ccccc1 [MM]	
554		Cc1cc(OCc2ccccc2)c(Br)c(=O)n1-c1c(Cl)cccc1Cl [DD]	
		Cc1cccc(COc2ccn(Cc3cccc(F)c3)c(=O)c2Br)c1 [WWWW]	IC50 [2]: 260 nM
	11500 nM	Cn1ccc(OCc2ccccc2)c(Br)c1=O [EEE]	
		Cc1ccc(COc2ccn(Cc3ccccc3)c(=O)c2Br)cc1 [QQQQQ]	IC50 [2]: 1730 nM
507		COC(=O)c1ccc(Cn2ccc(OCc3ccccc3)c(Br)c2=O)cc1 [Z]	
	7990 nM and 3460 nM	Cc1c(OCc2ccccc2)ccn(Cc2ccccc2)c1=O [JJJ]	
		O=c1c(Br)c(OCc2cccc(Cl)c2)ccn1Cc1cccc(F)c1 [DDDDD]	IC50 [2]: 691 nM
	2230 nM	O=c1c(Br)c(OCc2ccccc2)ccn1CCc1cccs1 [YYY]	
219		Cc1cc(OCc2ccccc2)c(Br)c(=O)n1Cc1ccccc1 [K]	
		Cc1ccccc1COc1ccn(Cc2cccc(F)c2)c(=O)c1Br [NNNNN]	IC50 [2]: 1690 nM
		Cc1cc(OCc2c(F)cccc2F)c(Br)c(=O)n1Cc1ccncc1 [EEEEE]	IC50 [2]: 684 nM
	26400 nM and 59200 nM and 49000 nM	O=c1cc(OCc2ccccc2)ccn1Cc1ccccc1 [EEEE]	
398		O=c1c(Br)c(OCc2ccccc2)ccn1Cc1ccc(Cl)cc1 [R]	
	18000 nM	O=c1c(Br)c(OCc2ccc(F)cc2)ccn1CCCc1ccccc1 [HHH]	
